Laboratory results reported in article PMC8079033, “Design, synthesis, anticancer evaluation, and molecular modelling studies of novel tolmetin derivatives as potential VEGFR-2 inhibitors and apoptosis inducers” (Journal of Enzyme Inhibition and Medicinal Chemistry, 2021).

Legend:
[1] = test system: MDA-MB-231/ATCC; assay: NCI 60-cell line one-dose antiproliferative screen (SRB); assay type: cell-based; settings: Homo sapiens, read-out: growth inhibition % (GI%)
Experimental: (§1) Anticancer activity screening of the newly synthesised compounds was measured in vitro utilising 60 different human tumour cell lines provided by US National Cancer Institute according to previously reported standard procedure[41–43] as follows: Cells are inoculated into 96-well microtiter plates in 100 ml. After cell inoculation, the microtiter plates are incubated at 37 °C, 5% CO2, 95% air, and 100% relative humidity for 24 h prior to addition of experimental compounds. After 24 h, two plates of each cell line are fixed in situ with TCA, to represent a measurement of the cell population for each cell line at the time of compound addition (Tz). Experimental compounds are solubilised in dimethyl sulfoxide at 400-fold the desired final maximum test concentration and stored frozen prior to use. At the time of compound addition, an aliquot of frozen concentrate is thawed and diluted to twice the desired final maximum test concentration with a complete medium containing […] gentamicin. Aliquots of […] of the compounds dilutions are added to the appropriate microtiter wells already containing 100 ml of medium, resulting in the required final compound concentration. Following compound addition, the plates are incubated for an additional 48 h at 37 °C, 5% CO2, 95% air, and 100% relative humidity. For adherent cells, the assay is terminated by the addition of cold trichloroacetic acid (TCA). Cells are fixed in situ by the gentle addition of 50 ml of cold 50% (w/v) TCA (final concentration, 10% TCA) and incubated for […] at 4 °C. The supernatant is discarded, and the plates are washed five times with tap water and air-dried. Sulforhodamine B (SRB) solution (100 ml) at 0.4% (w/v) in 1% acetic acid is added to each well, and plates are incubated for 10 min at room temperature. After staining, the unbound dye is removed by washing five times with 1% acetic acid and the plates are air-dried. The bound stain is subsequently solubilised with a 10 mM trizma base, and the absorbance is read on an automated plate reader at a wavelength of 515 nm. For suspension cells, the methodology is the same except that the assay is terminated by fixing settled cells at the bottom of the wells by gently adding 50 ml of 80% TCA (final concentration, 16% TCA). Using the absorbance measurements [time zero, (Tz), control growth, (C), and test growth in the presence of compound (Ti)], the percentage growth is calculated for each compound. The One-dose data are reported as a mean graph of the percent growth of treated cells. The reported number is growth relative to the no-compound control, and relative to the time zero number of cells. This allows the detection of both growth inhibition and lethality.
(§2) Fifteen newly synthesised compounds were tested for their in vitro antiproliferative activity by the National Cancer Institute (NCI), Maryland, USA[50], under the Developmental Therapeutic Program (DTP)[41]^,[43]^,[51]^,[52]. The tested compounds were evaluated at a concentration of 10 µM on a panel of 60 tumour cell lines representing leukaemia and non-small cell lung, colon, CNS, melanoma, ovarian, renal, prostate, and breast cancers. The antiproliferative activity was presented by the NCI as percent growth of the treated cells and is presented in Table 1 as growth inhibition percentage (GI%) achieved by the tested compounds.

[2] = test system: CAKI-1; assay: as above; assay type: cell-based; settings: Homo sapiens, read-out: growth inhibition % (GI%)
Experimental: as §1, §2

[3] = test system: ACHN; assay: as above; assay type: cell-based; settings: Homo sapiens, read-out: growth inhibition % (GI%)
Experimental: as §1, §2

[4] = test system: T-47D; assay: as above; assay type: cell-based; settings: Homo sapiens, T47D, read-out: growth inhibition % (GI%)
Experimental: as §1, §2

[5] = test system: NCI-H226; assay: as above; assay type: cell-based; settings: Homo sapiens, read-out: growth inhibition % (GI%)
Experimental: as §1, §2

[6] = test system: SF-268; assay: as above; assay type: cell-based; settings: Homo sapiens, read-out: growth inhibition % (GI%)
Experimental: as §1, §2

[7] = test system: NCI-H522; assay: as above; assay type: cell-based; settings: Homo sapiens, read-out: growth inhibition % (GI%)
Experimental: as §1, §2

[8] = test system: MCF7; assay: as above; assay type: cell-based; settings: Homo sapiens, read-out: growth inhibition % (GI%)
Experimental: as §1, §2

[9] = test system: A498; assay: as above; assay type: cell-based; settings: Homo sapiens, read-out: growth inhibition % (GI%)
Experimental: as §1, §2

[10] = test system: SW-620; assay: as above; assay type: cell-based; settings: Homo sapiens, read-out: growth inhibition % (GI%)
Experimental: as §1, §2

[11] = test system: HOP-62; assay: as above; assay type: cell-based; settings: Homo sapiens, read-out: growth inhibition % (GI%)
Experimental: as §1, §2

[12] = test system: SF-539; assay: as above; assay type: cell-based; settings: Homo sapiens, read-out: growth inhibition % (GI%)
Experimental: as §1, §2

[13] = test system: SNB-19; assay: as above; assay type: cell-based; settings: Homo sapiens, read-out: growth inhibition % (GI%)
Experimental: as §1, §2

[14] = test system: LOX IMVI; assay: as above; assay type: cell-based; settings: Homo sapiens, read-out: growth inhibition % (GI%)
Experimental: as §1, §2

[15] = test system: IGROV1; assay: as above; assay type: cell-based; settings: Homo sapiens, IGROV-1, read-out: growth inhibition % (GI%)
Experimental: as §1, §2

[16] = test system: HS 578 T; assay: as above; assay type: cell-based; settings: Homo sapiens, read-out: growth inhibition % (GI%)
Experimental: as §1, §2

[17] = test system: A549/ATCC; assay: as above; assay type: cell-based; settings: Homo sapiens, read-out: growth inhibition % (GI%)
Experimental: as §1, §2

[18] = test system: NCI-H23; assay: as above; assay type: cell-based; settings: Homo sapiens, read-out: growth inhibition % (GI%)
Experimental: as §1, §2

[19] = test system: HCT-15; assay: as above; assay type: cell-based; settings: Homo sapiens, read-out: growth inhibition % (GI%)
Experimental: as §1, §2

[20] = test system: RXF 393; assay: as above; assay type: cell-based; settings: Homo sapiens, read-out: growth inhibition % (GI%)
Experimental: as §1, §2

[21] = test system: RPMI-8226; assay: as above; assay type: cell-based; settings: Homo sapiens, read-out: growth inhibition % (GI%)
Experimental: as §1, §2

[22] = test system: SN 12 C; assay: as above; assay type: cell-based; settings: Homo sapiens, SN12C, read-out: growth inhibition % (GI%)
Experimental: as §1, §2

[23] = test system: MDA-MB-468; assay: as above; assay type: cell-based; settings: Homo sapiens, read-out: growth inhibition % (GI%)
Experimental: as §1, §2

[24] = test system: UO-31; assay: as above; assay type: cell-based; settings: Homo sapiens, read-out: growth inhibition % (GI%)
Experimental: as §1, §2

[25] = test system: M14; assay: as above; assay type: cell-based; settings: Homo sapiens, read-out: growth inhibition % (GI%)
Experimental: as §1, §2

[26] = test system: BT-5; assay: as above; assay type: cell-based; settings: Homo sapiens, read-out: growth inhibition % (GI%)
Experimental: as §1, §2

[27] = test system: UACC-62; assay: as above; assay type: cell-based; settings: Homo sapiens, read-out: growth inhibition % (GI%)
Experimental: as §1, §2

[28] = test system: SNB-75; assay: as above; assay type: cell-based; settings: Homo sapiens, read-out: growth inhibition % (GI%)
Experimental: as §1, §2

[29] = test system: PC-3; assay: as above; assay type: cell-based; settings: Homo sapiens, read-out: growth inhibition % (GI%)
Experimental: as §1, §2

[30] = test system: OVCAR-8; assay: as above; assay type: cell-based; settings: Homo sapiens, read-out: growth inhibition % (GI%)
Experimental: as §1, §2

[31] = test system: SK-MEL-5; assay: as above; assay type: cell-based; settings: Homo sapiens, read-out: growth inhibition % (GI%)
Experimental: as §1, §2

[32] = test system: U251; assay: as above; assay type: cell-based; settings: Homo sapiens, U-251, read-out: growth inhibition % (GI%)
Experimental: as §1, §2

[33] = test system: MOLT-4; assay: as above; assay type: cell-based; settings: Homo sapiens, read-out: growth inhibition % (GI%)
Experimental: as §1, §2

[34] = test system: EKVX; assay: as above; assay type: cell-based; settings: Homo sapiens, read-out: growth inhibition % (GI%)
Experimental: as §1, §2

[35] = test system: K-562; assay: NCI 60-cell line one-dose antiproliferative screen (SRB); assay type: cell-based; settings: Homo sapiens, K562, read-out: growth inhibition % (GI%)
Experimental: as §1, §2

[36] = test system: OVCAR-5; assay: as above; assay type: cell-based; settings: Homo sapiens, read-out: growth inhibition % (GI%)
Experimental: as §1, §2

[37] = test system: SF-295; assay: as above; assay type: cell-based; settings: Homo sapiens, read-out: growth inhibition % (GI%)
Experimental: as §1, §2

[38] = test system: NCI/ADR-RES; assay: as above; assay type: cell-based; settings: Homo sapiens, read-out: growth inhibition % (GI%)
Experimental: as §1, §2

[39] = test system: HOP-92; assay: as above; assay type: cell-based; settings: Homo sapiens, read-out: growth inhibition % (GI%)
Experimental: as §1, §2

[40] = test system: MDA-MB-435; assay: as above; assay type: cell-based; settings: Homo sapiens, read-out: growth inhibition % (GI%)
Experimental: as §1, §2

SMILES | inhibition at 10 µM [1] | inhibition at 10 µM [2] | inhibition at 10 µM [3] | inhibition at 10 µM [4] | inhibition at 10 µM [5] | inhibition at 10 µM [6] | inhibition at 10 µM [7] | inhibition at 10 µM [8] | inhibition at 10 µM [10] | inhibition at 10 µM [11] | inhibition at 10 µM [12] | inhibition at 10 µM [13] | inhibition at 10 µM [14] | inhibition at 10 µM [15] | inhibition at 10 µM [22] | inhibition at 10 µM [23] | inhibition at 10 µM [24] | inhibition at 10 µM [27] | inhibition at 10 µM [28] | inhibition at 10 µM [29] | further results
Cc1ccc(C(=O)c2ccc(CC(=O)NNC(=O)Nc3c(C)cccc3Cl)n2C)cc1 [Compound 8b, N-(2-Chloro-6-methylphenyl)-2–(2-(1-methyl-5–(4-methylbenzoyl)-1H-pyrrol-2-yl)acetyl)hydrazinecarboxamide] | < 10% | 11.3% | < 10% | < 10% | < 10% | < 10% | < 10% | < 10% | < 10% | < 10% | < 10% | 16.1% | < 10% | 11.2% | < 10% | < 10% | 26.1% | < 10% | 27.9% | < 10% | inhibition at 10 µM [9]: < 10%; inhibition at 10 µM [16]: < 10%; inhibition at 10 µM [17]: < 10%; inhibition at 10 µM [18]: < 10%; inhibition at 10 µM [19]: < 10%; inhibition at 10 µM [20]: < 10%; inhibition at 10 µM [21]: < 10%; inhibition at 10 µM [25]: < 10%; inhibition at 10 µM [26]: 12.7%; inhibition at 10 µM [30]: < 10%; inhibition at 10 µM [31]: < 10%; inhibition at 10 µM [32]: < 10%; inhibition at 10 µM [33]: < 10%; inhibition at 10 µM [34]: < 10%; melting point: 240 to 242 °C
Cc1ccc(C(=O)c2ccc(CC(=O)NN=C3C(=O)Nc4ccc(OC(F)(F)F)cc43)n2C)cc1 [Compound 6c, 2–(1-Methyl-5–(4-methylbenzoyl)-1H-pyrrol-2-yl)-N′-(2-oxo-5-(trifluoromethoxy)indolin-3-ylidene)acetohydrazide] | < 10% | 12.6% | < 10% | < 10% | < 10% | < 10% | 11.9% | < 10% | < 10% | 11.1% | < 10% | < 10% | < 10% | < 10% | < 10% | < 10% | 24.3% | < 10% | 37.1% | < 10% | inhibition at 10 µM [35]: < 10%; inhibition at 10 µM [36]: < 10%; inhibition at 10 µM [37]: < 10%; inhibition at 10 µM [38]: < 10%; inhibition at 10 µM [30]: < 10%; inhibition at 10 µM [39]: < 10%; inhibition at 10 µM [31]: < 10%; inhibition at 10 µM [32]: < 10%; inhibition at 10 µM [40]: < 10%; melting point: 157 to 159 °C
